Test results published in ChEMBL document CHEMBL4385620, “Inhibition of polypeptide N-acetyl-α-galactosaminyltransferases is an underlying mechanism of dietary polyphenols preventing colorectal tumorigenesis” (Bioorg Med Chem, 2019).
Activity calls are given as the source filed them. The rule behind the calls is not given here.

Experiments:
HT-29 [1] = assay: Effect on ppGalNAcT7 expression level in human HT-29 cells at 40 uM incubated for 48 hrs by Q-PCR analysis; assay type: ADME, cell-based; details: ht-29, 48 h
HT-29 [2] = assay: Effect on ppGalNAcT4 expression level in human HT-29 cells at 40 uM incubated for 48 hrs by Q-PCR analysis; assay type: ADME, cell-based; details: ht-29, 48 h
SW480 [3] = assay: Cytotoxicity against human SW480 cells at 40 uM incubated for 48 hrs by CCK-8 assay; assay type: cell-based; details: sw480, 48 h
[4] = target: T1, Polypeptide N-acetylgalactosaminyltransferase 2 (Homo sapiens, UniProt Q10471); assay: Binding affinity of human recombinant FLAG-tagged ppGalNAcT2 expressed in HEK293 cells assessed as dissociation constant by SPR analysis
T1 sequence (Q10471 whole entry): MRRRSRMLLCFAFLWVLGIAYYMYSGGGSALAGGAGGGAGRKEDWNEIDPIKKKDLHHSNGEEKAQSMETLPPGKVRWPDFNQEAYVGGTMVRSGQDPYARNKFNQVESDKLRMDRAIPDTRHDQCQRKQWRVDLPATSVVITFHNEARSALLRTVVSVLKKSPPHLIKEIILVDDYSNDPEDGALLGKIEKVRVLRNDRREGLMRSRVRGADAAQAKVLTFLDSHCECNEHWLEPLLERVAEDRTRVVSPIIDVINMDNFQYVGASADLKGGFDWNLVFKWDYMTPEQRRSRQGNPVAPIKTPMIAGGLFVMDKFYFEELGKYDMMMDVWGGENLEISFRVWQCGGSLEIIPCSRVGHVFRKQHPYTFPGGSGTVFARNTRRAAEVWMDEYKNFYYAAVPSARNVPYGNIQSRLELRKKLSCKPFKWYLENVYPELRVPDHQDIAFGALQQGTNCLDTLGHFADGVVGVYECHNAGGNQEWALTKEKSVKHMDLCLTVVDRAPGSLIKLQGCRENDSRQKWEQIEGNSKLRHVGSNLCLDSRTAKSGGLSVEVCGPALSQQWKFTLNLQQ

SW480 [5] = assay: Antimigratory activity in human SW480 cells at 40 uM incubated for 48 hrs by crystal violet staining based method; assay type: functional, cell-based
HT-29 [6] = assay: Effect on ppGalNAcT11 expression level in human HT-29 cells at 40 uM incubated for 48 hrs by Q-PCR analysis; assay type: ADME, cell-based; details: ht-29, 48 h
HT-29 [7] = assay: Effect on PDPN expression level in human HT-29 cells at 40 uM incubated for 48 hrs by Q-PCR analysis; assay type: ADME, cell-based; details: ht-29, 48 h
Homo sapiens = species on record: Homo sapiens; assay: Ratio of IC50 for IC50 for human recombinant FLAG-tagged ppGalNAcT2 W282A mutant to IC50 for human recombinant FLAG-tagged ppGalNAcT2
HT-29 [8] = assay: Effect on ppGalNAcT16 expression level in human HT-29 cells at 40 uM incubated for 48 hrs by Q-PCR analysis; assay type: ADME, cell-based; details: ht-29, 48 h
[9] = target: T1, Polypeptide N-acetylgalactosaminyltransferase 2; assay: Inhibition of ppGalNAcT2 in human HT-29 cells assessed as reduction in O-GalNAc glycans by measuring PNA lectin expression at 20 to 60 uM incubated for 48 hrs by Western blot analysis; assay type: cell-based
HT-29 [10] = assay: Effect on ppGalNAcT2 expression level in human HT-29 cells at 40 uM incubated for 48 hrs by Western blot analysis; assay type: ADME, cell-based; details: ht-29, 48 h
[11] = target: T1, Polypeptide N-acetylgalactosaminyltransferase 2; assay: Inhibition of ppGalNAcT2 in human HT-29 cells assessed as reduction in PDPN O-GalNAc glycosylation by at 40 uM incubated for 48 hrs by jacalin lectin based immunoprecipitation analysis; assay type: cell-based
[12] = target: T1, Polypeptide N-acetylgalactosaminyltransferase 2; assay: Inhibition of ppGalNAcT2 in human SW480 cells assessed as reduction in O-GalNAc glycosylation by measuring VVA lectin expression at 40 uM incubated for 48 hrs by Western blot analysis; assay type: cell-based
HT-29 [13] = assay: Effect on ppGalNAcT10 expression level in human HT-29 cells at 40 uM incubated for 48 hrs by Q-PCR analysis; assay type: ADME, cell-based; details: ht-29, 48 h
HCT-116 = assay: Anti-invasive activity in human HCT116 cells at 40 uM incubated for 48 hrs by crystal violet staining based method; assay type: functional, cell-based
[14] = target: T1, Polypeptide N-acetylgalactosaminyltransferase 2; assay: Non-competitive inhibition of human recombinant FLAG-tagged ppGalNAcT2 expressed in HEK293 cells using UDP-GalNAc as substrate by HPLC-based enzyme assay
Cricetulus griseus = species on record: Cricetulus griseus; assay: Inhibition of ppGalNAcT2 in Chinese hamster ldlD cells assessed as reduction in O-GalNAc glycosylation by measuring metabolic labelled-GalNAz signal at 40 uM incubated for 48 hrs by click chemistry assay; assay type: cell-based
[15] = target: T1, Polypeptide N-acetylgalactosaminyltransferase 2; assay: Competitive inhibition of human recombinant FLAG-tagged ppGalNAcT2 expressed in HEK293 cells using EA2 peptide as substrate by HPLC-based enzyme assay
[16] = target: T1, Polypeptide N-acetylgalactosaminyltransferase 2; assay: Inhibition of catalytic activity of human recombinant FLAG-tagged ppGalNAcT2 using Muc5AC peptide as substrate incubated for 30 mins by HPLC-based enzyme assay
[17] = target: T1, Polypeptide N-acetylgalactosaminyltransferase 2; assay: Inhibition of ppGalNAcT2 in human Jurkat cells assessed as reduction in O-GalNAc glycosylation by measuring VVA lectin expression at 40 uM incubated for 48 hrs by Western blot analysis; assay type: cell-based
[18] = target: T2, Polypeptide N-acetylgalactosaminyltransferase 1 (Homo sapiens, UniProt Q10472); assay: Inhibition of catalytic activity of ppGalNAcT1 (unknown origin) using EA2 peptide as substrate incubated for 30 mins by HPLC-based enzyme assay
T2 sequence (Q10472 whole entry): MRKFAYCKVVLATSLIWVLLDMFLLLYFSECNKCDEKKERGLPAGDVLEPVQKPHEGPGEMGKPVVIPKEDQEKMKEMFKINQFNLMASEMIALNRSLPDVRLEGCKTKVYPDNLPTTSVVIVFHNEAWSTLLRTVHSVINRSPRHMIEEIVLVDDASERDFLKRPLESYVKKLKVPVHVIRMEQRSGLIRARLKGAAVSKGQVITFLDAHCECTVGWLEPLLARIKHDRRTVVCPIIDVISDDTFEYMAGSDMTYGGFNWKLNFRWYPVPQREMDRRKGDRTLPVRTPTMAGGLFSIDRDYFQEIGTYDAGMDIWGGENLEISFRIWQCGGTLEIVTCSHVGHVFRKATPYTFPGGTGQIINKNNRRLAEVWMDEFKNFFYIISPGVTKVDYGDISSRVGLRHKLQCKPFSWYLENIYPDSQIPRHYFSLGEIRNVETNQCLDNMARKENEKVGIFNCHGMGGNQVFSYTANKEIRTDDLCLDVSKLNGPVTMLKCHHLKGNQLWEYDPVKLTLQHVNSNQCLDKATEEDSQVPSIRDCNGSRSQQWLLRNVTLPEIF

[19] = target: T1, Polypeptide N-acetylgalactosaminyltransferase 2; assay: Inhibition of ppGalNAcT2 in human HT-29 cells assessed as reduction in O-GalNAc glycans by measuring VVA lectin expression at 20 to 60 uM incubated for 48 hrs by Western blot analysis; assay type: cell-based
HT-29 [20] = assay: Effect on ppGalNAcT1 expression level in human HT-29 cells at 40 uM incubated for 48 hrs by Q-PCR analysis; assay type: ADME, cell-based; details: ht-29, 48 h
RKO = assay: Cytotoxicity against human RKO cells at 40 uM incubated for 48 hrs by CCK-8 assay; assay type: cell-based
[21] = target: Polypeptide N-acetylgalactosaminyltransferase 2 (Homo sapiens, UniProt Q10471, W282A); assay: Inhibition of catalytic activity of human recombinant FLAG-tagged ppGalNAcT2 W282A mutant expressed in HEK293 cells using EA2 peptide as substrate by HPLC-based enzyme assay
Polypeptide N-acetylgalactosaminyltransferase 2 (Homo sapiens, UniProt Q10471, W282A), sequence (Q10471 whole entry W282A): as the sequence (Q10471 whole entry) above, with W282A counted along it

HT-29 [22] = assay: Effect on ppGalNAcT14 expression level in human HT-29 cells at 40 uM incubated for 48 hrs by Q-PCR analysis; assay type: ADME, cell-based; details: ht-29, 48 h
HT-29 [23] = assay: Reduction in PDPN protein expression in human HT-29 cells at 40 uM for 48 hrs by Western blot analysis; assay type: functional, cell-based
[24] = target: T1, Polypeptide N-acetylgalactosaminyltransferase 2; assay: Binding affinity of human recombinant FLAG-tagged ppGalNAcT2 expressed in HEK293 cells assessed as association rate by SPR analysis
[25] = target: Polypeptide N-acetylgalactosaminyltransferase 14 (Homo sapiens, UniProt Q96FL9); assay: Inhibition of catalytic activity of ppGalNAcT14 (unknown origin) using EA2 peptide as substrate incubated for 30 mins by HPLC-based enzyme assay
Polypeptide N-acetylgalactosaminyltransferase 14, sequence (Q96FL9 whole entry): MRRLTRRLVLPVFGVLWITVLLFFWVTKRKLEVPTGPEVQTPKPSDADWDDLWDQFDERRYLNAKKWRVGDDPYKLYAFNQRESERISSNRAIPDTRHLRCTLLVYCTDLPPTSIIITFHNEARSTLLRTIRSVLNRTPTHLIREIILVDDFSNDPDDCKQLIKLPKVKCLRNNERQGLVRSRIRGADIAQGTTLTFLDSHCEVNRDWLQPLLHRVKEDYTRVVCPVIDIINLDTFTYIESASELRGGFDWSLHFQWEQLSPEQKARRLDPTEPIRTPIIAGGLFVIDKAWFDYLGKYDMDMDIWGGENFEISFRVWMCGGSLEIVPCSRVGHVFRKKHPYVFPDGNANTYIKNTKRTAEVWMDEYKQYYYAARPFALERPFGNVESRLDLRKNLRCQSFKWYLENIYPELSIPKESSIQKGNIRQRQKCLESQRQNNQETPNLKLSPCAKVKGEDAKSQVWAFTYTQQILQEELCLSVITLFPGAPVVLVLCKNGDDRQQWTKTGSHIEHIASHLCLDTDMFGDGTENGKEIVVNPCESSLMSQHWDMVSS

- Kd [4]: 294 nM
- Ratio IC50 (Homo sapiens): 4
- inhibition [9]: Active
- inhibition [11]: Active
- inhibition [12]: Active
- Ki [14]: 6150 nM
- Ki [15]: 1070 nM
- IC50 [16]: 2070 nM
- inhibition [17]: Active
- IC50 [18]: 2460 nM
- inhibition [19]: Active
- IC50 [21]: 3120 nM
- kon [24]: 3532 M⁻¹ s⁻¹
- IC50 [25]: 460 nM
Structure (SMILES): O=c1oc2c(O)c(O)ccc2c2cc(O)c(O)cc12
- Activity (HT-29 [1]): Non-Toxic
- Activity (HT-29 [2]): Non-Toxic
- Activity (SW480 [3]): Non-Toxic
- Activity (SW480 [5]): Active
- Activity (HT-29 [6]): Non-Toxic
- Activity (HT-29 [7]): Non-Toxic
- Activity (HT-29 [8]): Non-Toxic
- Activity (HT-29 [10]): Non-Toxic
- Activity (HT-29 [13]): Non-Toxic
- Activity (HCT-116): Active
- inhibition (Cricetulus griseus): Active
- Activity (HT-29 [20]): Non-Toxic
- Activity (RKO): Non-Toxic
- Activity (HT-29 [22]): Non-Toxic
- Activity (HT-29 [23]): Active
